Results: article PMC11312813, “An Optimized Peptide Antagonist of CXCR4 Limits Survival of BCR–ABL1-Transformed Cells in Philadelphia-Chromosome-Positive B-Cell Acute Lymphoblastic Leukemia” (International Journal of Molecular Sciences, 2024)
Counter-ions that a name gives are not always drawn.

Columns and labels:
[1] = tested on: TKO-EV cells (untransformed mouse BM pro-B cells); experiment: Real-time cell growth analysis by IncuCyte, untransformed TKO-EV cells; details: 1, 5 and 10 µM, 96 h; n = 3
Method: A flat-bottom 96-well plate was coated with 0.01% poly-L ornithine (#P4957, Sigma-Aldrich, Hamburg, Germany) for 1 h at room temperature (RT). BCR–ABL1, SupB15, and 697 cells were counted as 0.5 × 10^5 cells/well, while TKO-BCR–ABL1 and TKO-EV cells as 1 × 10^5 cells/well, which were labeled with IncuCyte Cytotox Red dye (#4632, Sartorius, Ulm, Germany) as per the manufacturer’s protocol. The cells were plated in 100 μL complete medium. […] Plate was prewarmed at 37 °C for 30 min prior to placing in the IncuCyte chamber. Scanning was conducted every two hours for total of 4 days. Images were acquired using a 20X objective in phase contrast and fluorescence mode at 4 images/well and analyzed using the cell-by-cell analysis module of IncuCyte software version 2020B (Essen Bioscience, Ann Arbor, MI, USA).

697 cells = experiment: Flow cytometric cell survival analysis, 697; type: cell-based, human; details: 10 µM; n = 3
Method: Cells treated with either solvent control DMSO or different concentrations of inhibitors for different time points were collected and washed with ice-cold PBS. Cells were then stained with efluor 450-labeled fixable viability dye (FVD, #65-0863-14, eBioscience, San Diego, CA, USA) at 1:1000 dilution at 4 °C or using 50 μg/mL propidium iodide (PI, #P3566, Thermo Fisher, Dreieich, Germany) solution at RT for 15 min in the dark. After washing, labeled cells were resuspended in 100 μL of PBS and acquired using LSR-Fortessa (BD Bioscience, Heidelberg, Germany). FACS data were analyzed with FlowJo software version 10.0.

[2] = tested on: Imatinib-resistant Ph+ ALL primary xenograft cells; experiment: Real-time cell growth by IncuCyte, primary Ph+ ALL xenograft cells; type: cell-based, human; details: 10 µM, 6 days; n = 2
Method: Animals showing clinical symptoms of leukemia or with >75% leukemic blasts in blood were sacrificed, and total splenic cells were isolated and frozen for future use.
For Ph^+ ALL cells isolated from the xenografted NSG mice, frozen cells were thawed and cultured in MEM-alpha (Gibco) media supplemented with 20% FBS and 100 units/mL of penicillin/streptomycin for 5–16 h in a 5% CO2 incubator. Next, the cells were overlaid on 10 mL Ficoll-Paque™PLUS (#17144003, Cytiva, Freiburg, Germany) in 50 mL tubes and centrifuged at 400 g without break for 10 min at RT. The cells were collected from the interface of Ficoll and media and washed once with PBS. Viable cells were counted and plated into previously coated 48-well plates at 4.25 × 10^5 cells/well in 250 μL of media with or without the inhibitors. Scanning was conducted every two hours for total of 6 days in phase contrast mode and analyzed using the cell-by-cell analysis module of IncuCyte software version 2020B (Essen Bioscience).

SupB15 cells = experiment: Real-time cell growth by IncuCyte, SupB15; type: cell-based, human; details: 10 µM, 96 h; n = 3
Method: The cells were plated in 100 μL complete medium.

Row | Compound | Survival/growth of TKO-EV cells [1] | 697 cell survival vs DMSO (697 cells) | Growth of Ph+ ALL xenograft cells vs DMSO [2] | SupB15 cell growth vs DMSO (SupB15 cells)
1 | c1cc(CN2CCCNCCNCCCNCC2)ccc1CN1CCCNCCNCCCNCC1 [AMD3100, AMD3100 octahydrochloride hydrate, reference compound] | neither JM#170 nor AMD3100 had any effect |  |  | 
2 | ILRWSRK * (Pal)-NH2 [JM#170, lipid-conjugated truncated version of EPI-X4, CXCR4 antagonist] |  | no effect on the survival of these cells | significant growth inhibitory effect | significantly reduced SupB15 cell growth
